Assays:
[1] = tested on: HCV genotype 1a L31V variant with leucine 31 changed to valine in the NS5A protein; test: microbe, parasite or virus in culture; format: cell-based; settings: genotype 1a L31V replicon; test compound titrated with compound N47 fixed at 200 nM versus singly
[2] = tested on: HCV genotype 1a Y93H variant with tyrosine 93 changed to histidine in the NS5A protein; test: microbe, parasite or virus in culture; format: cell-based; settings: genotype 1a Y93H replicon; test compound titrated with compound N47 fixed at 200 nM versus singly
Outline: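 In an HCV genotype 1a replicon cell-based assay carrying the NS5A Y93H substitution, BMS-790052 was tested alone and in combination with a fixed amount of a second test compound. The combinations were examined for synergistic activity.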

SMILES | Fold-Synergistic G-1a (L31V) [1] | Fold-Synergistic G-1a (Y93H) [2]
COC(=O)N[C@@H](C(=O)N1CCC[C@H]1c1nc(-c2ccc(Oc3ccc(-c4c[nH]c([C@@H]5CCCN5C(=O)[C@H](NC(=O)OC)c5ccccc5)n4)cc3)cc2)c[nH]1)c1ccccc1 | <10 fold | <10 fold
COC(=O)N[C@H](C(=O)N1[C@@H]2CCC[C@@H]2C[C@H]1c1nc(-c2ccc(-c3ccc(-c4c[nH]c([C@@H]5C[C@H]6CCC[C@H]6N5C(=O)[C@@H](NC(=O)OC)C(C)C)n4)cc3)cc2)c[nH]1)C(C)C | >100 fold | >100 fold
Cc1nc(-c2ccc(NC(=O)[C@@H]3CCCN3C(=O)Cc3ccccc3)cc2)c(-c2ccc(NC(=O)[C@@H]3CCCN3C(=O)Cc3ccccc3)cc2)s1 | <10 fold | <10 fold
CN(C)[C@@H](C(=O)N1CCC[C@H]1c1nc(-c2ccc(COCc3ccc(-c4c[nH]c([C@@H]5CCCN5C(=O)[C@@H](c5ccccc5)N(C)C)n4)cc3)cc2)c[nH]1)c1ccccc1 | <10 fold | <10 fold
COC(=O)N[C@H](C(=O)N1CCC[C@H]1c1ncc(-c2ccc(-c3ccc(-c4cnc([C@@H]5CCCN5C(=O)[C@@H](NC(=O)OC)C(C)C)[nH]4)cc3)cc2)[nH]1)C(C)C | >100 fold | >100 fold
COC(=O)N[C@H](C(=O)N1[C@@H]2C[C@@H]2C[C@H]1c1ncc(-c2cccc(-c3ccc4cc(-c5cnc([C@H]6C[C@@H]7C[C@@H]7N6C(=O)[C@@H](NC(=O)OC)C(C)C)[nH]5)ccc4c3)c2)[nH]1)C(C)C | <10 fold | >10 fold
C[C@H](NC(=O)OCc1ccccc1)c1nc2ccc(CCc3ccc4nc([C@H](C)NC(=O)OCc5ccccc5)[nH]c4c3)cc2[nH]1 | <10 fold | <10 fold
COC(=O)N[C@H](C(=O)N1CCC[C@H]1c1nc2ccc(C#CC#Cc3ccc4nc([C@@H]5CCCN5C(=O)[C@@H](NC(=O)OC)C(C)C)[nH]c4c3)cc2[nH]1)C(C)C | >100 fold | >10 fold
COC(=O)N[C@H](C(=O)N1CCCC[C@H]1c1nc(-c2ccc(-c3ccc4cc(-c5c[nH]c([C@@H]6CCCCN6C(=O)[C@@H](NC(=O)OC)C(C)C)n5)ccc4c3)cc2)c[nH]1)C(C)C | >10 fold | <10 fold
O=C(Nc1ccc(C#Cc2ccc(NC(=O)[C@@H]3CCCN3C(=O)Cc3ccccc3)cn2)nc1)[C@@H]1CCCN1C(=O)Cc1ccccc1 | <10 fold | <10 fold
COC(=O)N[C@H](C(=O)N1C[C@H](C)CC1c1nc(-c2ccc(-c3ccc(-c4cnc([C@@H]5C[C@@H](C)CN5C(=O)[C@@H](NC(=O)OC)C(C)C)[nH]4)cc3)cc2)c[nH]1)C(C)C (stereo partly drawn) | >100 fold | >100 fold
O=C1[C@@H]2CCCN2C(=O)C(c2ccccc2)N1c1ccc(/C=C/c2ccc(N3C(=O)[C@@H]4CCCN4C(=O)C3c3ccccc3)cc2)cc1 (stereo partly drawn) | <10 fold | <10 fold
COC(=O)N[C@@H](C(=O)N1CCC[C@H]1c1ncc(-c2ccc(-c3ccc(-c4cnc([C@@H]5CCCN5C(=O)[C@H](NC(=O)OC)c5ccccc5)[nH]4)cc3)cc2)[nH]1)c1ccccc1 | >10 fold | <10 fold
Cc1nc2cccc(-c3ncc(-c4ccc5nc([C@@H]6CCCN6C(=O)[C@@H](c6ccccc6)N(C)C)[nH]c5c4)o3)c2[nH]1 | <10 fold | <10 fold
C[C@](O)(C(=O)N1CCC[C@H]1c1nc2ccc(-c3ccc(-c4ccc5nc([C@@H]6CCCN6C(=O)[C@](C)(O)c6ccccc6)[nH]c5c4)o3)cc2[nH]1)c1ccccc1 | <10 fold | <10 fold
O=C(Cc1ccccc1)N1CCC[C@H]1c1nc2ccc(-c3cnc([C@@H]4CCCN4C(=O)Cc4ccccc4)o3)cc2[nH]1 | <10 fold | <10 fold
COC(=O)N[C@H](C(=O)N1CCC[C@H]1c1nc2ccc(Oc3ccc(-c4ccc5nc([C@@H]6CCCN6C(=O)[C@@H](NC(=O)OC)C(C)C)[nH]c5c4)cc3)cc2[nH]1)C(C)C | <10 fold | <10 fold
COC(=O)N[C@H](C(=O)N1[C@@H]2C[C@@H]2C[C@H]1c1nc2ccc3cc(C#CC#Cc4ccc5c(ccc6nc([C@@H]7C[C@H]8C[C@H]8N7C(=O)[C@@H](NC(=O)OC)C(C)C)[nH]c65)c4)ccc3c2[nH]1)C(C)C | >10 fold | >10 fold
COC(=O)N[C@H](C(=O)N1[C@@H]2C[C@@H]2C[C@H]1c1ncc(-c2ccc([C@H]3C[C@@H]3c3ccc(-c4cnc([C@@H]5C[C@H]6C[C@H]6N5C(=O)[C@@H](NC(=O)OC)C(C)C)[nH]4)cc3)cc2)[nH]1)C(C)C | >10 fold | <10 fold
COC(=O)N[C@@H](C(=O)N1CCC[C@H]1c1nc2ccc(-c3ncc(-c4ccc(N5CCOCC5)cc4)o3)cc2[nH]1)c1ccccc1 | <10 fold | <10 fold
C[C@H](NC(=O)[C@@H](c1ccccc1)N(C)C)c1ncc(-c2ccc(-c3ccc(-c4cnc([C@@H]5CCCN5C(=O)[C@@H](c5ccccc5)N(C)C)[nH]4)cn3)cc2)[nH]1 | <10 fold | <10 fold
COC(=O)N[C@H](C(=O)N1[C@H](c2ncc(-c3ccc(-c4ccc(-c5cnc([C@@H]6C[C@H](C)[C@H](C)N6C(=O)[C@@H](NC(=O)OC)C(C)C)[nH]5)cc4)cc3)[nH]2)C[C@H](C)[C@@H]1C)C(C)C | >100 fold | >100 fold
COC(=O)N[C@H](C(=O)N1CCC[C@H]1C(=O)NC1Cc2ccc(-c3ccc4c(c3)CC(NC(=O)[C@@H]3CCCN3C(=O)[C@@H](NC(=O)OC)C(C)C)C4)cc2C1)C(C)C (stereo partly drawn) | >10 fold | >10 fold
COC(=O)N[C@H](C(=O)N1CCC[C@H]1c1nc(-c2ccc(-c3ccc(-c4ccc5nc([C@@H]6CCCN6C(=O)[C@@H](NC(=O)OC)C(C)C)[nH]c5c4)cc3)cc2)c[nH]1)C(C)C | >10 fold | >10 fold
COC(=O)N[C@H](C(=O)N1[C@@H](C)CC[C@H]1c1ncc(-c2ccc3c(c2)CCc2cc(-c4cnc([C@@H]5CC[C@H](C)N5C(=O)[C@@H](NC(=O)OC)C(C)C)[nH]4)ccc2-3)[nH]1)C(C)C | >100 fold | >100 fold
CCN(CC)[C@@H](C(=O)N1CCC[C@H]1c1nc2c([nH]1)CCCc1cc(-c3ccc4nc([C@@H]5CCCN5C(=O)[C@@H](c5ccccc5)N(CC)CC)[nH]c4c3)ccc1-2)c1ccccc1 | <10 fold | <10 fold
COC(=O)N[C@H](C(=O)N1[C@@H](C)CC[C@H]1c1ncc(-c2ccc3c(c2)Cc2cc(-c4cnc([C@@H]5CC[C@H](C)N5C(=O)[C@@H](NC(=O)OC)C(C)C)[nH]4)ccc2-3)[nH]1)C(C)C | >100 fold | >100 fold
